IC50 and melting point data for 41 compounds are collected here from patent US20090143392A1, “Methods of Treating Obesity and Metabolic Disorders” (ELBION GMBH, priority 2007, published 2009).

For one data set, the target named is T1, PDE10 from pig striatum (Sus scrofa, UniProt A0A287B941).
T1 construct: "Striatum from male hybrid pigs (150 kg)"
Put plainly: Inhibition of PDE10 from pig striatum. It is filed as biochemical. Particulars: 0.1 μM [3H]-cAMP, 37° C., 30 minutes. On the procedure:
Phosphodiesterase isoenzyme 10 (PDE10) activity was determined in preparations of human recombinant PDE10A and PDE10 from pig striatum, respectively.
Striatum from male hybrid pigs (150 kg) were collected and frozen at −70° C.
At the day of preparation 0.5 g striatum was homogenised in 10 ml 50 mM Tris/Mg-buffer at 4° C. and centrifuged for one hour at 100000 g.
Nonspecific activity was tested without the enzyme. […] For determination of IC50 values the Hill-plot, 2-parameter-model, was used.
Phosphodiesterase isoenzyme 10 (PDE10) activity was determined in preparations of rat, pig and guinea pig striatum respectively. Striatum from male Wistar rats (180-200 g), male hybrid pigs (150 kg) and male guinea pigs (CRL (HA), 500 g) respectively were collected and frozen at −70° C.
For the enzymatic testing of PDE10 activity 0.5 g of the isolated and frozen striatum was homogenised in 10 ml 50 mM Tris/Mg-buffer at 4° C. and centrifuged for one hour at 100000 g.

Compound “1-cyclohexyl-3,4-dimethyl-8-methoxy-imidazo[1,5-a]pyrido[3,2-e]pyrazine [Example 44a]” returned an IC50 at PDE10 from pig striatum of 3 nM.
Still for that read-out and setting: with “1-hexyl-8-methoxy-3-methyl-4-methylsulfonylamino-imidazo[1,5-a]pyrido[3,2-e]pyrazine [Example 79a]” the figure was 11 nM; with “1-propyl-3,4-dimethyl-imidazo[1,5-a]pyrido[3,2-e]pyrazine [Example 52a]”, 53 nM.
On the same count and under the same terms, in the case of “3,4-dimethyl-1-hexyl-8-methoxy-imidazo[1,5-a]pyrido[3,2-e]pyrazine [Example 45a]” it was 53 nM; in that of “3,4-dimethyl-8-methoxy-1-(2-chlorophenyl)-imidazo[1,5-a]pyrido[3,2-e]pyrazine [Example 49a]”, 1 nM.
On to “3,4-dimethyl-8-methoxy-1-(3,3,3-trifluoropropyl)-imidazo[1,5-a]pyrido[3,2-e]pyrazine [Example 42a]”, for which, at PDE10 from pig striatum, it took 59 nM to reach half-maximal inhibition (IC50).
On the same count and under the same terms, in the case of “3,4-dimethyl-8-methoxy-1-pentyl-imidazo[1,5-a]pyrido[3,2-e]pyrazine [Example 43a]” it was 35 nM.
Still for that read-out and setting: with “3,4-dimethyl-8-methoxy-1-phenyl-imidazo[1,5-a]pyrido[3,2-e]pyrazine dihydrochloride [Example 48a]” the figure was 7 nM; with “3-methyl-4-methylsulfonylamino-1-propyl-imidazo[1,5-a]pyrido[3,2-e]pyrazin-8-ol [Example 86a]”, 23 nM.
Still for that read-out and setting: with “4-amino-1-(4-fluoro-phenyl)-8-methoxy-3-methyl-imidazo[1,5-a]pyrido[3,2-e]pyrazine [Example 12b]” the figure was 6 nM.
For the compound “4-amino-1-hexyl-8-methoxy-3-methyl-imidazo[1,5-a]pyrido[3,2-e]pyrazine [Example 7b]”, the IC50 against PDE10 from pig striatum is 48 nM.
The same measure, in the same setting: in the case of “4-amino-8-methoxy-3-methyl-1-phenethyl-imidazo[1,5-a]pyrido[3,2-e]pyrazine [Example 9b]” it was 38 nM; in that of “4-azido-8-methoxy-3-methyl-1-propyl-imidazo[1,5-a]pyrido[3,2-e]pyrazine [Example 31a]”, 171 nM; in that of “4-chloro-3-methyl-1-propyl-imidazo[1,5-a]pyrido[3,2-e]pyrazin-8-ol [Intermediate A25]”, 63 nM.
Still for that read-out and setting: with “4-chloro-8-difluoromethoxy-3-methyl-1-propyl-imidazo[1,5-a]pyrido[3,2-e]pyrazine [Intermediate A28]” the figure was 8 nM; with “4-difluoromethoxy-3-methyl-1-propyl-imidazo[1,5-a]pyrido[3,2-e]pyrazine-8-ol [Example 59a]”, 11 nM; with “4-ethylsulfonylamino-8-methoxy-3-methyl-1-propyl-imidazo[1,5-a]pyrido[3,2-e]pyrazine [Example 71a]”, 126 nM.
Same read-out and setting: in the case of “4-isopropylsulfonylamino-8-methoxy-3-methyl-1-propyl-imidazo[1,5-a]pyrido[3,2-e]pyrazine [Example 75a]” it was 78 nM.
“8-difluoromethoxy-3,4-dimethyl-1-propyl-imidazo[1,5-a]pyrido[3,2-e]pyrazine [Example 54a]” registered an IC50 at PDE10 from pig striatum of 18 nM.
On the same count and under the same terms, with “8-difluoromethoxy-3-methyl-4-methylsulfonylamino-1-propyl-imidazo[1,5-a]pyrido[3,2-e]pyrazine [Example 87a]” the figure was 15 nM; with “8-methoxy-3-methyl-1-phenethyl-4-methylsulfonylamino-imidazo[1,5-a]pyrido[3,2-e]pyrazine [Example 80a]”, 37 nM.
The same measure, in the same setting: with “8-methoxy-3-methyl-1-propyl-4-trifluoromethylsulfonylamino-imidazo[1,5-a]pyrido[3,2-e]pyrazine [Example 73a]” the figure was 19 nM; with “8-methoxy-3-methyl-1-propyl-4-ureido-imidazo[1,5-a]pyrido[3,2-e]pyrazine [Example 67a]”, 83 nM; with “8-methoxy-3-methyl-4-(3-isopropyl-ureido)-1-propyl-imidazo[1,5-a]pyrido[3,2-e]pyrazine [Example 68a]”, 141 nM.
As for “8-methoxy-3-methyl-4-(3-methyl-ureido)-1-propyl-imidazo[1,5-a]pyrido[3,2-e]pyrazine [Example 66a]”, the IC50 on PDE10 from pig striatum turned out to be 752 nM.
The same measure, in the same setting: in the case of “8-methoxy-3-methyl-5-oxo-1-propyl-imidazo[1,5-a]pyrido[3,2-e]pyrazine [Example 60a]” it was 23 nM.
On the same count and under the same terms, in the case of “8-methoxy-4-(methoxycarbonyl-methyl-amino)-3-methyl-1-propyl-imidazo[1,5-a]pyrido[3,2-e]pyrazine [Example 65a]” it was 559 nM.
For the compound `CCCc1nc(C)cn1-c1ccc2nc(N)c3c(C)nc(CCC)n3c2n1` [Example 6b, 4-amino-3-methyl-1-propyll-8-(2-propyl-4-methyl-imidazol-1-yl)-imidazo[1,5-a]pyrido[3,2-e]pyrazine], the melting point was in the range of 215 to 221 °C. Moreover, on PDE10 from pig striatum, the IC50 is 1 nM.
As to `CCCc1ncc2c(C)nc3ccc(OC)nc3n12` [Example 53a], the IC50 at PDE10 from pig striatum came to 43 nM.
On to `CCc1nc(C)cn1-c1ccc2nc(C)c3c(C)nc(CC)n3c2n1` [Example 57a], for which the melting point lay in the range of 73 to 75 °C. Besides, the IC50 at PDE10 from pig striatum worked out at 11 nM.
`CCc1nc(C)c2n1-c1nc(OC)ccc1NC2` [Example 93a, 1-ethyl-8-methoxy-3-methyl-4,5-dihydro-imidazo[1,5-a]pyrido[3,2-e]pyrazine] registered a melting point of 139 to 142 °C.
In the case of `COc1ccc2nc(Cl)c3c(C)nc(C4CCCCC4)n3c2n1` [Intermediate A4], the melting point is 211 to 213 °C. This compound showed an IC50 at PDE10 from pig striatum of 2 nM.
In turn, `CCCCCCc1nc(C)c2c(Cl)nc3ccc(OC)nc3n12` [Intermediate A5] returned a melting point of 115 to 117 °C. At PDE10 from pig striatum, this compound returned an IC50 of 71 nM.
On the same counts, the results for `CCCCCc1nc(C)c2c(Cl)nc3ccc(OC)nc3n12` [Intermediate A6] are 110.5 to 113 °C and 56 nM.
Compound `COc1ccc2nc(Cl)c3c(C)nc(CCC(F)(F)F)n3c2n1` [Intermediate A7] showed a melting point of 149 to 153 °C. At PDE10 from pig striatum, this compound had an IC50 of 34 nM.
On the same counts, the results for `COc1ccc2nc(Cl)c3c(C)nc(-c4ccccc4)n3c2n1` [Intermediate A9] are 240 to 242 °C and 4 nM.
On the same counts, the results for `CCCc1nc(C)c2c(Cl)nc3cccnc3n12` [Intermediate A12] are 138 to 140 °C and 38 nM.
On the same counts, the results for `CCCc1ncc2c(Cl)nc3ccc(OC)nc3n12` [Intermediate A13] are 153 to 155 °C and 53 nM.
For `COc1ccc2nc(Cl)c3cnc(C(C)C)n3c2n1` [Intermediate A14], the melting point is 162 to 164 °C. The IC50 against PDE10 from pig striatum worked out at 128 nM.
Take `CCCc1nc(C)c2c(Cl)nc3ccc(C)nc3n12` [Intermediate A19]: the melting point lay in the range of 99 to 101 °C. Moreover, inhibition against PDE10 from pig striatum was half-maximal at 9 nM (IC50).
With `CCCc1nc(C)c2c(Cl)nc3ccc(N4CCCCC4)nc3n12` [Intermediate A21], at PDE10 from pig striatum, 5 nM corresponded to half-maximal inhibition (IC50).

The term IC50 denotes the concentration that inhibits the measured activity by half. In general, melting point refers to the temperature, or range, at which the solid turns liquid.
